Assay results published in patent US5710150A, “Benzazepine derivative, pharmaceutical composition thereof, and intermediate thereof” (Yamanouchi Pharmaceutical Co., Ltd., priority 1993, dated 1998).
pKi: −log10 of the molar value. Structures can show the parent of a compound that is named as a salt. Where two headings read alike, the source gives them in different places.

Assays:
V1 = V1 antagonism in conscious rats (oral administration), AVP-induced diastolic blood pressure increase; assay type: in vivo, male Wister rats; settings: 1 mg/kg oral, 30 minutes to 6 hours after administration, AVP 30 mU/kg i.v.
[1] = biological target: T1, arginine vasopressin V1 receptor (Rattus norvegicus, UniProt P30560); test: V1 receptor binding assay ([3H]-Arg-vasopressin, rat liver membrane); settings: for Ki: read-out: Binding activity on arginine vasopressin V1 receptor (pKi) (converted); for V1 selectivity (in words): V1 versus V2 receptor binding; for V1 receptor antagonism compared with OPC-21268 (in words): versus OPC-21268
T1 construct: A rat liver membrane sample was prepared; from tissue; host or cells: rat liver membranes
T1 sequence (P30560 whole entry): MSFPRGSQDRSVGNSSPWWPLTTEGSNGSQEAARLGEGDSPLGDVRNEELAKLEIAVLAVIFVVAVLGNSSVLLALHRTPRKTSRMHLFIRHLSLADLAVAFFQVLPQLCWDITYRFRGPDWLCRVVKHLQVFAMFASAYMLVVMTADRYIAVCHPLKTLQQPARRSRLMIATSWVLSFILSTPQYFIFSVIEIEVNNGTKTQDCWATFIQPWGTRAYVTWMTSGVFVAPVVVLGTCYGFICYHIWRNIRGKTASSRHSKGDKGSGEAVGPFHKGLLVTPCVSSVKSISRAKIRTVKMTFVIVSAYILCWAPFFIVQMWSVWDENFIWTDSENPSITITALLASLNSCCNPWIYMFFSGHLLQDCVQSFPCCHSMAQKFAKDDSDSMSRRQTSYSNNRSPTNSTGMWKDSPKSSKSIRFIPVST
Experimental: (1) V1 receptor binding assay
A rat liver membrane sample was prepared in accordance with the method of Nakamura et al. (J. Biol. Chem., 258, 9283 (1983)), and [^3 H]-Arg-vasopressin (2 nM, specific activity=75.8 Ci/mmol), 70 μg of the membrane sample and each drug to be tested (10^-8 to 10^-4 M) were incubated at 30° C. for 30 minutes in 250 μl of 100 mM Tris-HCl buffer (pH=8.0) containing 5 mM of magnesium chloride, 1 mM of ethylenediaminetetraacetic acid (EDTA) and 0.1% of bovine serum albumin (BSA). Thereafter, the incubation solution was sucked off using a cell harvester and free ligand and excess buffer were removed by passing the reaction mixture through a glass filter (GF/B), thereby trapping receptor-bound labeled ligand on the glass filter. The glass filter was taken out, thoroughly dried and then mixed with a liquid scintillation cocktail, and the amount of the membrane-bound [^3 H]-vasopressin was measured using a liquid scintillation counter to calculate the inhibition ratio by the following formula. [formula] C1 : amount of [^3 H]-vasopressin bound to the membrane in the coexistence of known amount of each drug to be tested and [^3 H]-vasopressin
C0 : amount of [^3 H]-vasopressin bound to the membrane when the drug to be tested was not added
B1 : amount of [^3 H]-vasopressin bound to the membrane in the presence of excess vasopressin (10^-6 M)
[formula] [L]: concentration of radioactive ligand KD: dissociation constant calculated from Scatchard plot
Negative logarithm of the thus calculated Ki value was used as pKi value.

[2] = biological target: arginine vasopressin V2 receptor (Oryctolagus cuniculus, UniProt G1TA00); test: V2 receptor binding assay ([3H]-Arg-vasopressin, rabbit renal medulla membrane); settings: for Binding activity on arginine vasopressin V2 receptor (pKi): rabbit renal medulla membrane, [3H]-Arg-vasopressin 2 nM
arginine vasopressin V2 receptor, sequence (G1TA00 78-446): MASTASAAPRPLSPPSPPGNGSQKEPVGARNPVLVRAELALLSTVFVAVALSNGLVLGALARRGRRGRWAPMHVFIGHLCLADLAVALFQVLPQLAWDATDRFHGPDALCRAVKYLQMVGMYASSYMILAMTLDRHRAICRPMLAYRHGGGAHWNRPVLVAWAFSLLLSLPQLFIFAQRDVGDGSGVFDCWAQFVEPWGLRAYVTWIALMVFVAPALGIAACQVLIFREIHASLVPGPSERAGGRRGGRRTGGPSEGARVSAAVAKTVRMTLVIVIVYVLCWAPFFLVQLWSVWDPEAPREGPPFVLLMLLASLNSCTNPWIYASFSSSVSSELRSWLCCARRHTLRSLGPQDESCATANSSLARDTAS

[3] = compared with OPC-31260 and OPC-21268
[4] = rat liver membrane, [3H]-Arg-vasopressin 2 nM, 30° C., 30 minutes, pH 8.0

CN1CCN(C(=O)/C=C2/c3ccccc3N(C(=O)c3ccc(NC(=O)c4ccccc4-c4ccccc4)cc3)CCC2(F)F)CC1.Cl [Example 11, (Z)-4'-[[4,4-difluoro-5-(4-methyl-1-piperazinyl)carbonylmethylene-2,3,4,5-tetrahydro-1H-1-benzazepin-1-yl]carbonyl]-2-phenylbenzanilide hydrochloride]
Pressure increment by AVP (before compound = 100%) (V1): ≤ 50% | antagonism on V1 receptor (in words) [1, 3]: excellent antagonisms on both V1 and V2 receptors | Ki [1, 4]: 1.29 nM | antagonism on V2 receptor (in words) [2, 3]: excellent antagonisms on both V1 and V2 receptors | Binding activity on arginine vasopressin V2 receptor (pKi) [2]: 9.06

CCc1nccn1-c1ccccc1C(=O)Nc1ccc(C(=O)N2CCC(F)(F)/C(=C\C(N)=O)c3ccccc32)cc1 [Example 103, (Z)-4'-[(5-carbamoylmethylene-4,4-difluoro-2,3,4,5-tetrahydro-1H-1-benzazepin-1-yl]carbonyl]-2-(2-ethyl-1H-imidazol-1-yl)benzanilide]
V1 selectivity (in words) [1]: excellent in V1 selectivity | Ki [1, 4]: 2 nM | V1 receptor antagonism compared with OPC-21268 (in words) [1]: markedly stronger V1 receptor antagonism than that of OPC-21268 | Binding activity on arginine vasopressin V2 receptor (pKi) [2]: 6.35

CCc1nccn1-c1ccccc1C(=O)Nc1ccc(C(=O)N2CCC(F)(F)/C(=C\C(=O)NC)c3ccccc32)cc1 [Example 104, (Z)-2-(2-ethyl-1H-imidazol-1-yl)-4'-[[4,4-difluoro-5-[(N-methylcarbamoyl)methylene]-2,3,4,5-tetrahydro-1H-1-benzazepin-1-yl]carbonyl]benzanilide]
V1 selectivity (in words) [1]: excellent in V1 selectivity | Ki [1, 4]: 0.977 nM | V1 receptor antagonism compared with OPC-21268 (in words) [1]: markedly stronger V1 receptor antagonism than that of OPC-21268 | Binding activity on arginine vasopressin V2 receptor (pKi) [2]: 6.68

CCc1nccn1-c1ccccc1C(=O)Nc1ccc(C(=O)N2CCC(F)(F)/C(=C\C(=O)NC3CC3)c3ccccc32)cc1 [Example 105, (Z)-4'-[[5-[(N-cyclopropylcarbamoyl)methylene]-4,4-difluoro-2,3,4,5-tetrahydro-1H-1-benzazepin-1-yl]carbonyl]-2-(2-ethyl-1H-imidazol-1-yl) benzanilide]
V1 selectivity (in words) [1]: excellent in V1 selectivity | Ki [1, 4]: 0.339 nM | V1 receptor antagonism compared with OPC-21268 (in words) [1]: markedly stronger V1 receptor antagonism than that of OPC-21268 | Binding activity on arginine vasopressin V2 receptor (pKi) [2]: 6.81

Cc1ccccc1CC(=O)Nc1ccc(C(=O)N2CCC(F)(F)/C(=C\C(=O)N3CCC(N(C)C)CC3)c3ccccc32)cc1 [Example 106, hydrochloride]
Ki [1, 4]: 1.12 nM | Binding activity on arginine vasopressin V2 receptor (pKi) [2]: 8.24

CN(C)C1CCN(C(=O)/C=C2/c3ccccc3N(C(=O)c3ccc(NC(=O)c4cccc5ccccc45)cc3)CCC2(F)F)CC1 [Example 109, (Z)-N-[4'-[[4,4-difluoro-5-[[(4-dimethylaminopiperidino)carbonyl]methylene]-2,3,4,5-tetrahydro-1H-1-benzazepin-1-yl]carbonyl]phenylnaphthalene-1-carboxyamide hydrochloride]
Ki [1, 4]: 3.98 nM | Binding activity on arginine vasopressin V2 receptor (pKi) [2]: 8.06

CN(C)C1CCN(C(=O)/C=C2/c3ccccc3N(C(=O)c3ccc(NC(=O)c4cccn4C)cc3)CCC2(F)F)CC1 [Example 110, (Z)-N-[4-[[4,4-difluoro-5-[[(4-dimethylaminopiperidino)carbonyl]methylene]-2,3,4,5-tetrahydro-1H-1-benzazepin-1-yl]carbonyl]phenyl]-1-methylpyrrole-2-carboxyamide hydrochloride]
pKi [1]: 9.40 | Binding activity on arginine vasopressin V2 receptor (pKi) [2]: 7.75

Cc1ccsc1C(=O)Nc1ccc(C(=O)N2CCC(F)(F)/C(=C\C(=O)N3CCC(N(C)C)CC3)c3ccccc32)cc1 [Example 111, (Z)-N-[4-[[4,4-difluoro-5-[[(4-dimethylaminopiperidino)carbonyl]methylene]-2,3,4,5-tetrahydro-1H-1-benzazepin-1-yl]carbonyl]phenyl]-3-methylthiophene-2-carboxyamide hydrochloride]
pKi [1]: 9.25 | Binding activity on arginine vasopressin V2 receptor (pKi) [2]: 7.79

Cc1ccoc1C(=O)Nc1ccc(C(=O)N2CCC(F)(F)/C(=C\C(=O)N3CCC(N(C)C)CC3)c3ccccc32)cc1 [Example 113, (Z)-N-[4-[[4,4-difluoro-5-[[(4-dimethylaminopiperidino)carbonyl]methylene]-2,3,4,5-tetrahydro-1H-1-benzazepin-1-yl]carbonyl]phenyl]-3-methyl-2-furancarboxyamide hydrochloride]
pKi [1]: 9.58 | V1 selectivity (in words) [1]: excellent in V1 selectivity | V1 receptor antagonism compared with OPC-21268 (in words) [1]: markedly stronger V1 receptor antagonism than that of OPC-21268 | Binding activity on arginine vasopressin V2 receptor (pKi) [2]: 7.50

NC(=O)/C=C1/c2ccccc2N(C(=O)c2ccc(NC(=O)c3ccccc3-c3ccccc3)cc2)CCC1(F)F [Example 121, (Z)-4'-[(5-carbamoylmethylene-4,4-difluoro-2,3,4,5-tetrahydro-1H-1-benzazepin-1-yl]carbonyl]-2-phenylbenzanilide]
Ki [1, 4]: 0.295 nM | Binding activity on arginine vasopressin V2 receptor (pKi) [2]: 8.59

CNC(=O)/C=C1/c2ccccc2N(C(=O)c2ccc(NC(=O)c3ccccc3-c3ccccc3)cc2)CCC1(F)F [Example 122, (Z)-4'-[[4,4-difluoro-5-(N-methylcarbamoylmethylene)-2,3,4,5-tetrahydro-1H-1-benzazepin-1-yl]carbonyl]-2-phenylbenzanilide]
Ki [1, 4]: 0.355 nM | Binding activity on arginine vasopressin V2 receptor (pKi) [2]: 8.94

CCNC(=O)/C=C1/c2ccccc2N(C(=O)c2ccc(NC(=O)c3ccccc3-c3ccccc3)cc2)CCC1(F)F [Example 123, (Z)-4'-[[5-(N-ethylcarbamoylmethylene)-4,4-difluoro-2,3,4,5-tetrahydro-1H-1-benzazepin-1-yl]carbonyl]-2-phenylbenzanilide]
Ki [1, 4]: 0.2 nM | Binding activity on arginine vasopressin V2 receptor (pKi) [2]: 9.16

CC(C)NC(=O)/C=C1/c2ccccc2N(C(=O)c2ccc(NC(=O)c3ccccc3-c3ccccc3)cc2)CCC1(F)F [Example 125, (Z)-4'-[[4,4-difluoro-5-(N-isopropylcarbamoylmethylene)-2,3,4,5-tetrahydro-1H-1-benzazepin-1-yl]carbonyl]-2-phenylbenzanilide]
Ki [1, 4]: 0.282 nM | Binding activity on arginine vasopressin V2 receptor (pKi) [2]: 8.08

O=C(/C=C1/c2ccccc2N(C(=O)c2ccc(NC(=O)c3ccccc3-c3ccccc3)cc2)CCC1(F)F)NC1CC1 [Example 126]
Ki [1, 4]: 0.288 nM | Binding activity on arginine vasopressin V2 receptor (pKi) [2]: 8.22

O=C(/C=C1/c2ccccc2N(C(=O)c2ccc(NC(=O)c3ccccc3-c3ccccc3)cc2)CCC1(F)F)NCc1ccccc1 [Example 127, (Z)-4'-[[4,4-difluoro-5-[(N-benzylcarbamoyl)methylene]-2,3,4,5-tetrahydro-1H-1-benzazepin-1-yl]carbonyl]-2-phenylbenzanilide]
Ki [1, 4]: 1.74 nM | Binding activity on arginine vasopressin V2 receptor (pKi) [2]: 8.19

CN(C)C(=O)/C=C1/c2ccccc2N(C(=O)c2ccc(NC(=O)c3ccccc3-c3ccccc3)cc2)CCC1(F)F [Example 129, (Z)-4'-[[5-(N,N-dimethylcarbamoylmethylene)-4,4-difluoro-2,3,4,5-tetrahydro1H-1-benzazepin-1-yl]carbonyl]-2-phenylbenzanilide]
Ki [1, 4]: 0.479 nM | Binding activity on arginine vasopressin V2 receptor (pKi) [2]: 8.24

O=C(Nc1ccc(C(=O)N2CCC(F)(F)/C(=C\C(=O)N3CCCC3)c3ccccc32)cc1)c1ccccc1-c1ccccc1 [Example 131]
Ki [1, 4]: 0.708 nM | Binding activity on arginine vasopressin V2 receptor (pKi) [2]: 7.99

O=C(Nc1ccc(C(=O)N2CCC(F)(F)/C(=C\C(=O)N3CCOCC3)c3ccccc32)cc1)c1ccccc1-c1ccccc1 [Example 133, (Z)-4'-[(4,4-difluoro-5-morpholinocarbonylmethylene-4,4-difluoro-2,3,4,5-tetrahydro-1H-1-benzazepin-1-yl)carbonyl]-2-phenylbenzanilide]
Ki [1, 4]: 0.363 nM | Binding activity on arginine vasopressin V2 receptor (pKi) [2]: 8.28

O=C(/C=C1/c2ccccc2N(C(=O)c2ccc(NC(=O)c3ccccc3-c3ccccc3)cc2)CCC1(F)F)NCCO [Example 134, (Z)-4'-[[4,4-difluoro-5-[N-(2-hydroxyethyl)carbamoylmethylene]-4,4-difluoro-2,3,4,5-tetrahydro-1H-1-benzazepin-1-yl]carbonyl]-2-phenylbenzanilide]
Binding activity on arginine vasopressin V1 receptor (pKi) [1, 4]: 9.50 | Binding activity on arginine vasopressin V2 receptor (pKi) [2]: 8.94

COCCNC(=O)/C=C1/c2ccccc2N(C(=O)c2ccc(NC(=O)c3ccccc3-c3ccccc3)cc2)CCC1(F)F [Example 135, (Z)-4'-[[4,4-difluoro-5-[N-(2-methoxyethyl)carbamoylmethylene]-2,3,4,5-tetrahydro-1H-1-benzazepin-1-yl]carbonyl]-2-phenylbenzanilide]
Ki [1, 4]: 0.195 nM | Binding activity on arginine vasopressin V2 receptor (pKi) [2]: 8.11
